Measurements published in patent US9492426B2, “Mycophenolic acid analogues as anti-tumor chemosensitizing agents” (Texas A & M University System, priority 2011, dated 2016).
pIC50: −log10 of the molar value. Where two headings read alike, the source gives them in different places.

Experiments:
MDA-MB-231 cells = experiment: BrdU labeling (cell proliferation) in MDA-MB-231 cells; type: cell-based, human; details: 5-FU 0.15 ug/ml alone or MPA 0.19 uM alone
Protocol: Primary antibodies used for immunofluorescence included rabbit anti-NS (Ab138, Cocalico), rat anti-BrdU (BU1/75, Accurate), and mouse anti-fibrillarin (38F3, EnCor) antibodies. To measure cell proliferation, cultures were treated with bromodeoxyuridine (BrdU, Accurate, OBT0030) 1 hour before harvest.

pre-rRNA transcripts = experiment: Real-time RT-PCR of pre-rRNA transcripts; type: cell-based
Protocol: The AC(t) values between the target message and two reference messages (HMG-14 and […]) were determined using the MyiQ single-color real-time PCR detection system and supermix SYBR green reagent. The AAC(t) values were measured from two biological replicates and two technical repeats (n=4). Primer sequences are: SJ1, 5′-[…]-3′ and 5′-[…]-3′; SJ2, 5′-[…]-3′ and 5′-[…]-3′; SJ3, 5′-[…]-3′ and 5′-[…]-3′; and 18S, 5′-[…]-3′ and 5′-[…]-3′.
The anti-tumor activity of MPA has been linked to nucleolar stress. To investigate whether the synergy of MPA on 5-FU is related to nucleolar stress, Applicants tested the anti-tumor effect of 5-FU in combination with two inhibitors (actinomycin D [AMD] and ADR). Both drugs trigger nucleolar disassembly, but differ in that low-dose AMD (0.05 ug/ml) inhibits the activity of RNA polymerase-I, whereas ADR (2 uM) inhibits the activity of RNA polymerase-II. […] To determine how 5-FU and MPA affect the synthesis or processing of pre-rRNAs, Applicants used real-time RT-PCR to measure the amounts of rRNA transcripts with the splice junction-1 (SJ-1), SJ-2, SJ-3, and 18S rRNA sequences (FIG. 3B). […] By contrast, 5-FU alone increases 47S pre-rRNA and decreases the amount of SJ-3-containing transcripts.

[1] = tested on: dysplastic oral keratinocyte (DOK) cells; experiment: Growth inhibition (IC50) and combination index in dysplastic oral keratinocyte cells; type: cell-based; details: single agent, read-out: IC50 concentration
Protocol: Cells were plated in 96-well plates for one day and received drug treatments for 3 days. The plating cell densities were 2,000 cells/well for human cancer cell lines, 3,000 cells/well for tumor sphere cells, and 10,000 cells/well for primary tumor cells. Following the addition of MTT solutions (10 μl, 5 mg/ml), cells were incubated for 4 hours to allow MTT to be metabolized to formazan. Formazan was then dissolved in DMSO and measured by spectrophotometer at 560 nm.
The tumor growth-inhibitory curves of individual drugs were first measured by the MTT assay over a range of five concentrations with three-fold increment. The half-inhibitory concentrations (IC50) were calculated by Calcusyn program (Biosoft, Ferguson, Mo.). The combined effects were measured by mixing two drugs at the 4:1, 2:1, 1:1, 1:2, or 1:4 ratio of their respective IC50 concentrations. Each combination was tested for its tumor growth-inhibitory effect over a range of five different dosages, and calculated for its CI using the Calcusyn program.

nucleostemin = experiment: Nucleostemin protein level in MDA-MB-231 cells; type: cell-based, human
Text: To test the idea that nucleostemin may be involved in mediating the synergy between MPA and 5-FU, Applicants first confirmed that MPA treatment decreases the protein level of endogenous nucleostemin but not that of GNL3L and Ngp-1, the two nucleostemin homologues in vertebrate (FIG. 4A). […] Applicants noted that cells in the three control groups appear to be more resistant to the 5-FU/MPA-combined treatment than to the parental MDA-MB-231 cells, which may be caused by the G418/puromycin drug selection process.

| SMILES | proliferative rate (BrdU labeling) (MDA-MB-231 cells) | 47S pre-rRNA (pre-rRNA transcripts) | amount of SJ-3-containing transcripts (pre-rRNA transcripts) | IC50 ([1]; Keratinocyte) [µg/mL] | amount of pre-rRNA transcripts (SJ-1, SJ-2, SJ-3, 18S), including 47S pre-rRNA (pre-rRNA transcripts) | protein level of endogenous nucleostemin (nucleostemin) | pIC50 ([1]; Keratinocyte) | pIC50 [1] |
| --- | --- | --- | --- | --- | --- | --- | --- | --- |
| O=c1[nH]cc(F)c(=O)[nH]1 [5-FU, 5-fluorouracil] | does not decrease | increases | decreases | 1.67 | – | – | – | – |
| COc1c(C)c2c(c(O)c1C/C=C(\C)CCC(=O)O)C(=O)OC2 [MPA, mycophenolic acid] | does not decrease | – | – | – | decrease the amount of pre-rRNA transcripts | decreases | 5.18 | – |
| O=C1[O][Pt]2([NH][C@@H]3CCCC[C@H]3[NH]2)[O]C1=O [oxaliplatin] | – | – | – | – | – | – | – | 6.08 |
| CC(=O)O[C@H]1C(=O)[C@@]2(C)[C@H]([C@H](OC(=O)c3ccccc3)[C@]3(O)C[C@H](OC(=O)[C@H](O)[C@@H](NC(=O)c4ccccc4)c4ccccc4)C(C)=C1C3(C)C)[C@]1(OC(C)=O)CO[C@@H]1C[C@@H]2O [paclitaxel] | – | – | – | – | – | – | 6.68 | – |
